This is an account of results in US12084472B2 (Ardelyx, Inc., priority 2015, dated 2024).

The test concerns the target T1, human TGR5 (Homo sapiens, UniProt Q8TDU6).
T1 construct: expressed in transfected cells; host or cells: HEK293
T1 sequence (Q8TDU6 1-330): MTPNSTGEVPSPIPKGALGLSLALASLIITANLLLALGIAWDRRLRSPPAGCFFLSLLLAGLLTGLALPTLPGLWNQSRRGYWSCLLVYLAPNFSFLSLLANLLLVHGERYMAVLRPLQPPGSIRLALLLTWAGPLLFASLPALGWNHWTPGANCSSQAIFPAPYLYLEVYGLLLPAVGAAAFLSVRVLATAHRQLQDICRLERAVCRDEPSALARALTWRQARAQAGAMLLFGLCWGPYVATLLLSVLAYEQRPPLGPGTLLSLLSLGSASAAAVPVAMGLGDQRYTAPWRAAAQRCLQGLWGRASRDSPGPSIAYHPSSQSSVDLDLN
In words: Cell-based TGR5 assay (cAMP generation, HTRF). Particulars: HEK293 cells stably transfected with human TGR5; cAMP by HTRF; 30 minutes at 37° C.; read-out: pEC50 Human TGR5 (converted). The gist of the method: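 First, compounds in 3-fold serial dilution were placed in HBSS with 10 mM HEPES pH 7.4 and 0.5 mM IBMX. Next, human TGR5-expressing HEK293 cells were added and incubated 30 min at 37° C. Finally, cAMP was detected by HTRF and pEC50 derived by logistic fitting.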
(In general: Time-resolved FRET reads energy transfer from a long-lived donor to a nearby acceptor.)
In the case of `CS(=O)(=O)CCN(CCCCSc1ccc(Cl)c(CNC2(c3cnccc3-c3ccccc3OC3CC3)CC2)c1)C(=O)[C@@H](O)[C@@H](O)[C@H](O)[C@@H](O)CO` [Compound I-584, (2S,3S,4R,5S)-N-[4-({4-chloro-3-[({-[4-(2-cyclopropoxyphenyl)pyridin-3-yl]cyclopropyl}amino)methyl]phenyl}sulfanyl)butyl]-2,3,4,5,6-pentahydroxy-N-(2-methanesulfonylethyl) hexanamide], the EC50 was under 100 nM.
The figure for `CS(=O)(=O)NCCN(CCCSc1ccc(Cl)c(CNC2(c3cnccc3-c3ccccc3OC3CC3)CC2)c1)C(=O)[C@@H](O)[C@@H](O)[C@H](O)[C@@H](O)CO` [Compound I-585, (2S,3S,4R,5S)-N-[3-({4-chloro-3-[({1-[4-(2-cyclopropoxyphenyl)pyridin-3-yl]cyclopropyl}amino)methyl]phenyl}sulfanyl)propyl]-2,3,4,5,6-pentahydroxy-N-(2-methanesulfonamidoethyl) hexanamide] is under 100 nM.
As for `CC(=O)NCCN(CCCSc1ccc(Cl)c(CNC2(c3cnccc3-c3ccccc3OC3CC3)CC2)c1)C(=O)[C@@H](O)[C@@H](O)[C@H](O)[C@@H](O)CO` [Compound I-586, (2S,3S,4R,5S)-N-[3-({4-chloro-3-[({1-[4-(2-cyclopropoxyphenyl)pyridin-3-yl]cyclopropyl}amino)methyl]phenyl}sulfanyl)propyl]-N-(2-acetamidoethyl)-2,3,4,5,6-pentahydroxyhexanamide], the figure is 126 to 1000 nM; as for `CCOC(=O)NCCN(CCCSc1ccc(Cl)c(CNC2(c3cnccc3-c3ccccc3OC3CC3)CC2)c1)C(=O)[C@@H](O)[C@@H](O)[C@H](O)[C@@H](O)CO` [Compound I-587, ethyl N-{2-[(2S,3S,4R,5S)-N-[3-({4-chloro-3-[({1-[4-(2-cyclopropoxyphenyl)pyridin-3-yl]cyclopropyl}amino)methyl]phenyl}sulfanyl)propyl]-2,3,4,5,6-pentahydroxyhexanamido]ethyl}carbamate], 126 to 1000 nM; as for `CS(=O)(=O)NCCCN(CCCSc1ccc(Cl)c(CNC2(c3cnccc3-c3ccccc3OC3CC3)CC2)c1)C(=O)[C@@H](O)[C@@H](O)[C@H](O)[C@@H](O)CO` [Compound I-588, (2S,3S,4R,5S)-N-[3-({4-chloro-3-[({1-[4-(2-cyclopropoxyphenyl)pyridin-3-yl]cyclopropyl}amino)methyl]phenyl}sulfanyl)propyl]-2,3,4,5,6-pentahydroxy-N-(3-methanesulfonamidopropyl) hexanamide], under 100 nM.
For the compound `CC(=O)NCCCN(CCCSc1ccc(Cl)c(CNC2(c3cnccc3-c3ccccc3OC3CC3)CC2)c1)C(=O)[C@@H](O)[C@@H](O)[C@H](O)[C@@H](O)CO` [Compound I-589, (2S,3S,4R,5S)-N-[3-({4-chloro-3-[({1-[4-(2-cyclopropoxyphenyl)pyridin-3-yl]cyclopropyl}amino)methyl]phenyl}sulfanyl)propyl]-N-(3-acetamidopropyl)-2,3,4,5,6-pentahydroxyhexanamide], the EC50 is 126 to 1000 nM.
As for `CCOC(=O)NCCCN(CCCSc1ccc(Cl)c(CNC2(c3cnccc3-c3ccccc3OC3CC3)CC2)c1)C(=O)[C@@H](O)[C@@H](O)[C@H](O)[C@@H](O)CO` [Compound I-590, ethyl N-{3-[(2S,3S,4R,5S)-N-[3-({4-chloro-3-[({1-[4-(2-cyclopropoxyphenyl)pyridin-3-yl]cyclopropyl}amino)methyl]phenyl}sulfanyl)propyl]-2,3,4,5,6-pentahydroxyhexanamido]propyl} carbamate], the figure is under 100 nM; as for `CS(=O)(=O)NCCCN(CCCCSc1ccc(Cl)c(CNC2(c3cnccc3-c3ccccc3OC3CC3)CC2)c1)C(=O)[C@@H](O)[C@@H](O)[C@H](O)[C@@H](O)CO` [Compound I-591, (2S,3S,4R,5S)-N-[4-({4-chloro-3-[({1-[4-(2-cyclopropoxyphenyl)pyridin-3-yl]cyclopropyl}amino)methyl]phenyl}sulfanyl)butyl]-2,3,4,5,6-pentahydroxy-N-(3-methanesulfonamidopropyl) hexanamide], 126 to 1000 nM; as for `CS(=O)(=O)NCCCN(CCCSc1ccc(Cl)c(COC2(c3cnccc3-c3ccccc3OC3CC3)CC2)c1)C(=O)[C@@H](O)[C@@H](O)[C@H](O)[C@@H](O)CO` [Compound I-592, (2S,3S,4R,5S)-N-(3-{[4-chloro-3-({1-[4-(2-cyclopropoxyphenyl)pyridin-3-yl]cyclopropoxy}methyl)phenyl]sulfanyl}propyl)-2,3,4,5,6-pentahydroxy-N-(3-methanesulfonamidopropyl) hexanamide], 126 to 1000 nM.
In the case of `CS(=O)(=O)NCCN(CCCSc1ccc(Cl)c(COC2(c3cnccc3-c3ccccc3OC3CC3)CC2)c1)C(=O)[C@@H](O)[C@@H](O)[C@H](O)[C@@H](O)CO` [Compound I-593, (2S,3S,4R,5S)-N-(3-{[4-chloro-3-({1-[4-(2-cyclopropoxyphenyl)pyridin-3-yl]cyclopropoxy}methyl)phenyl]sulfanyl}propyl)-2,3,4,5,6-pentahydroxy-N-(2-methanesulfonamidoethyl) hexanamide], the EC50 was under 100 nM.
On to `CC(=O)NCCCN(CCCSc1ccc(Cl)c(COC2(c3cnccc3-c3ccccc3OC3CC3)CC2)c1)C(=O)[C@@H](O)[C@@H](O)[C@H](O)[C@@H](O)CO` [Compound I-594, (2S,3S,4R,5S)-N-(3-{[4-chloro-3-({1-[4-(2-cyclopropoxyphenyl)pyridin-3-yl]cyclopropoxy}methyl)phenyl]sulfanyl}propyl)-N-(3-acetamidopropyl)-2,3,4,5,6-pentahydroxyhexanamide], for which the EC50 is under 100 nM.
The figure for `CC(=O)NCCN(CCCSc1ccc(Cl)c(COC2(c3cnccc3-c3ccccc3OC3CC3)CC2)c1)C(=O)[C@@H](O)[C@@H](O)[C@H](O)[C@@H](O)CO` [Compound I-595, (2S,3S,4R,5S)-N-(3-{[4-chloro-3-({1-[4-(2-cyclopropoxyphenyl)pyridin-3-yl]cyclopropoxy}methyl)phenyl]sulfanyl}propyl)-N-(2-acetamidoethyl)-2,3,4,5,6-pentahydroxyhexanamide] is 126 to 1000 nM; for `CCOC(=O)NCCCN(CCCSc1ccc(Cl)c(COC2(c3cnccc3-c3ccccc3OC3CC3)CC2)c1)C(=O)[C@@H](O)[C@@H](O)[C@H](O)[C@@H](O)CO` [Compound I-596, ethyl N-{3-[(2S,3S,4R,5S)-N-(3-{[4-chloro-3-({1-[4-(2-cyclopropoxyphenyl)pyridin-3-yl]cyclopropoxy}methyl)phenyl]sulfanyl}propyl)-2,3,4,5,6-pentahydroxyhexanamido]propyl}carbamate] it is 126 to 1000 nM; for `CCOC(=O)NCCN(CCCSc1ccc(Cl)c(COC2(c3cnccc3-c3ccccc3OC3CC3)CC2)c1)C(=O)[C@@H](O)[C@@H](O)[C@H](O)[C@@H](O)CO` [Compound I-597, ethyl N-{2-[(2S,3S,4R,5S)-N-(3-{[4-chloro-3-({1-[4-(2-cyclopropoxyphenyl)pyridin-3-yl]cyclopropoxy}methyl)phenyl]sulfanyl}propyl)-2,3,4,5,6-pentahydroxyhexanamido]ethyl}carbamate] it is 126 to 1000 nM.
The figure for `O=C([C@@H](O)[C@@H](O)[C@H](O)[C@@H](O)CO)N(CCCCCSc1ccc(Cl)c(CNC2(c3cnccc3-c3ccccc3OC3CC3)CC2)c1)CCOCCO` [Compound I-598, (2S,3S,4R,5S)-N-[5-({4-chloro-3-[({1-[4-(2-cyclopropoxyphenyl)pyridin-3-yl]cyclopropyl}amino)methyl]phenyl}sulfanyl)pentyl]-2,3,4,5,6-pentahydroxy-N-[2-(2-hydroxyethoxy)ethyl]hexanamide] is under 100 nM; for `CS(=O)(=O)NCCCCN(CCCSc1ccc(Cl)c(CNC2(c3cnccc3-c3ccccc3OC3CC3)CC2)c1)C(=O)[C@@H](O)[C@@H](O)[C@H](O)[C@@H](O)CO` [Compound I-599, (2S,3S,4R,5S)-N-[3-({4-chloro-3-[({1-[4-(2-cyclopropoxyphenyl)pyridin-3-yl]cyclopropyl}amino)methyl]phenyl}sulfanyl)propyl]-2,3,4,5,6-pentahydroxy-N-(4-methanesulfonamidobutyl) hexanamide] it is under 100 nM.
As for `O=C([C@@H](O)[C@@H](O)[C@H](O)[C@@H](O)CO)N(CCCCO)CCCCCSc1ccc(Cl)c(CNC2(c3cnccc3-c3ccccc3OC3CC3)CC2)c1` [Compound I-600, (2S,3S,4R,5S)-N-[5-({4-chloro-3-[({1-[4-(2-cyclopropoxyphenyl)pyridin-3-yl]cyclopropyl}amino)methyl]phenyl}sulfanyl)pentyl]-2,3,4,5,6-pentahydroxy-N-(4-hydroxybutyl)hexanamide], the figure is under 100 nM; as for `O=C([C@@H](O)[C@@H](O)[C@H](O)[C@@H](O)CO)N(CCCCCO)CCCCCSc1ccc(Cl)c(CNC2(c3cnccc3-c3ccccc3OC3CC3)CC2)c1` [Compound I-601, (2S,3S,4R,5S)-N-[5-({4-chloro-3-[({1-[4-(2-cyclopropoxyphenyl)pyridin-3-yl]cyclopropyl}amino)methyl]phenyl}sulfanyl)pentyl]-2,3,4,5,6-pentahydroxy-N-(5-hydroxypentyl)hexanamide], under 100 nM.
In the case of `CC(=O)NCCCCN(CCCSc1ccc(Cl)c(CNC2(c3cnccc3-c3ccccc3OC3CC3)CC2)c1)C(=O)[C@@H](O)[C@@H](O)[C@H](O)[C@@H](O)CO` [Compound I-602, (2S,3S,4R,5S)-N-[3-({4-chloro-3-[({1-[4-(2-cyclopropoxyphenyl)pyridin-3-yl]cyclopropyl}amino)methyl]phenyl}sulfanyl)propyl]-N-(4-acetamidobutyl)-2,3,4,5,6-pentahydroxyhexanamide], the EC50 was 126 to 1000 nM.
